According to ChEMBL document CHEMBL4396940, “Synthesis and biological evaluation of 4-(piperid-3-yl)amino substituted 6-pyridylquinazolines as potent PI3Kδ inhibitors” (Bioorg Med Chem, 2019):

Key:
[1] = target: T1, Phosphatidylinositol 4,5-bisphosphate 3-kinase catalytic subunit delta isoform (Homo sapiens, UniProt O00329); assay: Inhibition of PI3K delta (unknown origin) using phosphatidyl inositol as substrate measured after 60 mins in presence of ATP by Kinase-Glo Plus reagent-based luminescence assay
T1 sequence (O00329 whole entry): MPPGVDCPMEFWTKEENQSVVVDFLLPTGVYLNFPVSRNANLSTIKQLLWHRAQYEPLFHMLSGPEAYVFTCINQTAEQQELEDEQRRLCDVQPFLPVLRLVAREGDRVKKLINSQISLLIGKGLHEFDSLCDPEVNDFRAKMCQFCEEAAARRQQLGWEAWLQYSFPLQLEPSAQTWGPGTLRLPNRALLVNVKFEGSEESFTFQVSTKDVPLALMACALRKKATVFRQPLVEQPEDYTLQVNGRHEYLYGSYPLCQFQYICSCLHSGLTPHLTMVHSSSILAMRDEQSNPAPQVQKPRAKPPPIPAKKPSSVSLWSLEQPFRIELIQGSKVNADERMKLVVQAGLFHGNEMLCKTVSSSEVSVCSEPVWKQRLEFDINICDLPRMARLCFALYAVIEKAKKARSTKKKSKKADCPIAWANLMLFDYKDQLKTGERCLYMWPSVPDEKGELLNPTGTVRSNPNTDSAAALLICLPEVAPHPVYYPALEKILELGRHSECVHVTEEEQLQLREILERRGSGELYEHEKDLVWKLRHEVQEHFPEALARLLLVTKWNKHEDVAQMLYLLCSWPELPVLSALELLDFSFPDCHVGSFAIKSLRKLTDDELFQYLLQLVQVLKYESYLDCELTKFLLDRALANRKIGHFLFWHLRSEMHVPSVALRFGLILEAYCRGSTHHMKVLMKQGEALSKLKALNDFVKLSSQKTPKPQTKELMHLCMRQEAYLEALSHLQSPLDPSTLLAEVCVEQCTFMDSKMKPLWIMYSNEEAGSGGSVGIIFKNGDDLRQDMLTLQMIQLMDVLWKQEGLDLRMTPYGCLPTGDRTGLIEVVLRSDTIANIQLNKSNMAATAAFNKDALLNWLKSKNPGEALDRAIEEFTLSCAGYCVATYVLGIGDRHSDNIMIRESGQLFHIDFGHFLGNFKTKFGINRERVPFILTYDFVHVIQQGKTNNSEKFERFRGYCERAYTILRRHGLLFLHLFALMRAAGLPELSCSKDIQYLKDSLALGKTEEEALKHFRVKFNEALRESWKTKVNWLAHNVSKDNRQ

[2] = tested on: SU-DHL-6; assay: Antiproliferative activity against human SUDHL6 cells by MTT assay; assay type: functional, cell-based
[3] = tested on: MCF7; assay: cells; conditions: Homo sapiens
Description: Antiproliferative activity against human MCF7 cells by MTT assay

[4] = tested on: Ramos; assay: Antiproliferative activity against human Ramos cells by MTT assay; assay type: functional, cell-based
[5] = tested on: HCT-116; assay: cells; conditions: Homo sapiens
Description: Antiproliferative activity against human HCT116 cells by MTT assay

[6] = tested on: Raji; assay: Antiproliferative activity against human Raji cells by MTT assay; assay type: functional, cell-based
[7] = target: T1, Phosphatidylinositol 4,5-bisphosphate 3-kinase catalytic subunit delta isoform; assay: Inhibition of PI3K delta (unknown origin)
[8] = target: Phosphatidylinositol 4,5-bisphosphate 3-kinase catalytic subunit beta isoform (Homo sapiens, UniProt P42338); assay: Inhibition of PI3K beta (unknown origin) using phosphatidyl inositol as substrate measured after 60 mins in presence of ATP by Kinase-Glo Plus reagent-based luminescence assay
[9] = target: Phosphatidylinositol 4,5-bisphosphate 3-kinase catalytic subunit gamma isoform (Homo sapiens, UniProt P48736); assay: Inhibition of PI3K gamma (unknown origin) using phosphatidyl inositol as substrate measured after 60 mins in presence of ATP by Kinase-Glo Plus reagent-based luminescence assay
[10] = target: Phosphatidylinositol 4,5-bisphosphate 3-kinase catalytic subunit alpha isoform (Homo sapiens, UniProt P42336); assay: Inhibition of PI3K alpha (unknown origin) using phosphatidyl inositol as substrate measured after 60 mins in presence of ATP by Kinase-Glo Plus reagent-based luminescence assay
[11] = target: T2, Phosphatidylinositol 4,5-bisphosphate 3-kinase catalytic subunit delta isoform (Homo sapiens) (UniProt O00329); assay: Inhibition of PI3K delta in human SUDHL6 cells assessed as reduction in AKT phosphorylation at S473 measured after 8 hrs by Western blot analysis; assay type: cell-based
T2 sequence (whole entry): T1 sequence (O00329 whole entry)

Chain of Phosphatidylinositol 4,5-bisphosphate 3-kinase catalytic subunit beta isoform (P42338 whole entry, canonical isoform): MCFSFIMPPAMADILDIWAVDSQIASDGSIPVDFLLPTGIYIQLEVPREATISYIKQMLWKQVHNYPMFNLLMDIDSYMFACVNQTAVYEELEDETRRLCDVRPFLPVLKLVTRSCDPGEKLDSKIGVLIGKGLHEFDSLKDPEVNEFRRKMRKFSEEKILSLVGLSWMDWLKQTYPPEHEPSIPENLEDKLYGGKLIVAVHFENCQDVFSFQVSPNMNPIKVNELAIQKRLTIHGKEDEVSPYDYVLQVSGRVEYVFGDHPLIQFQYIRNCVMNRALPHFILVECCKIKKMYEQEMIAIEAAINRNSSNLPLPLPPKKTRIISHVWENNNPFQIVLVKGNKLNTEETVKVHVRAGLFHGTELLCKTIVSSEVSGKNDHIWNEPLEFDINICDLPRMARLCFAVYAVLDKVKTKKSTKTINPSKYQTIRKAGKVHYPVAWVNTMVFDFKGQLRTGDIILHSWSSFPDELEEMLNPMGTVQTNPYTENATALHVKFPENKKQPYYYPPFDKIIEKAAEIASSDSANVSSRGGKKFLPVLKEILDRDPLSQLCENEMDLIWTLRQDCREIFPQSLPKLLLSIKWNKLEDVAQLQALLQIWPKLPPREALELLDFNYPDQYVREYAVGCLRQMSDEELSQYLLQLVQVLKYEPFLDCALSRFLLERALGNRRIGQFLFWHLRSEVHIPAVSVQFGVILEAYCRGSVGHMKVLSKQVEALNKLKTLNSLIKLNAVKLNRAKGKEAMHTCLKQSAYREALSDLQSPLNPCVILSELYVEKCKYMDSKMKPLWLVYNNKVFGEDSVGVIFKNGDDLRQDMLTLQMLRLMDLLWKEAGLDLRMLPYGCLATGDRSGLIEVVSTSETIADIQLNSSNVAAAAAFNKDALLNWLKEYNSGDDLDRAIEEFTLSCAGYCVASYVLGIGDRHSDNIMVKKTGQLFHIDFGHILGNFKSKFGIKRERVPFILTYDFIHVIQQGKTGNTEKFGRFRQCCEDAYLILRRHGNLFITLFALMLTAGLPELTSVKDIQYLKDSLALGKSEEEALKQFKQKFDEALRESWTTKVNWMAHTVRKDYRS
Chain of Phosphatidylinositol 4,5-bisphosphate 3-kinase catalytic subunit gamma isoform (P48736 whole entry, canonical isoform): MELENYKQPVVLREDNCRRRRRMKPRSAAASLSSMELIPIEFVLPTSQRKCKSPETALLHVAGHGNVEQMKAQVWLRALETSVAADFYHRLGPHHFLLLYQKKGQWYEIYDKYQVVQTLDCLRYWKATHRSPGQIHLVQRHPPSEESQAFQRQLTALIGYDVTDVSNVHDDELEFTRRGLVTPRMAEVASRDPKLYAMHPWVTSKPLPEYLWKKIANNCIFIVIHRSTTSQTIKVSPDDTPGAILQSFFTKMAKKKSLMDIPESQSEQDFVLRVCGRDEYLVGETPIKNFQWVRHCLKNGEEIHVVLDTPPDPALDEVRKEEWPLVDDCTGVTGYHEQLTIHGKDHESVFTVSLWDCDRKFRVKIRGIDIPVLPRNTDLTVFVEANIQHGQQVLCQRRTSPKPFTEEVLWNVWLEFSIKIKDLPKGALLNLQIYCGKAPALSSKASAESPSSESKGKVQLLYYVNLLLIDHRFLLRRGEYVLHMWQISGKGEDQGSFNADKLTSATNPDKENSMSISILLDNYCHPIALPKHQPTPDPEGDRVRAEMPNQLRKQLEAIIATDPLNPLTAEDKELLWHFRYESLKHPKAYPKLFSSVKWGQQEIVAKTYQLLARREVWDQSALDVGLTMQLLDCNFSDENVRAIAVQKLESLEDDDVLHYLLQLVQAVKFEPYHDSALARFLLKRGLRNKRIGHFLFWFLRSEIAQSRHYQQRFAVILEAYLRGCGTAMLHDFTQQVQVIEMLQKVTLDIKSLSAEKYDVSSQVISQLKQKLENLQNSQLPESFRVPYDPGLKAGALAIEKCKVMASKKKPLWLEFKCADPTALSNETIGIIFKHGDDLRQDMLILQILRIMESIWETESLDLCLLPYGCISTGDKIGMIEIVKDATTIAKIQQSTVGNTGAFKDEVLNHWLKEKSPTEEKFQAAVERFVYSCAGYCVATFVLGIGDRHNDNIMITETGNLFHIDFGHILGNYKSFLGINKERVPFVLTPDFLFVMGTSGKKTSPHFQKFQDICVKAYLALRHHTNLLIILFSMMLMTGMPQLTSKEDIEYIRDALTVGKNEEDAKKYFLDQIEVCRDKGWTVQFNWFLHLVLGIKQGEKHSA
Chain of Phosphatidylinositol 4,5-bisphosphate 3-kinase catalytic subunit alpha isoform (P42336 whole entry, canonical isoform): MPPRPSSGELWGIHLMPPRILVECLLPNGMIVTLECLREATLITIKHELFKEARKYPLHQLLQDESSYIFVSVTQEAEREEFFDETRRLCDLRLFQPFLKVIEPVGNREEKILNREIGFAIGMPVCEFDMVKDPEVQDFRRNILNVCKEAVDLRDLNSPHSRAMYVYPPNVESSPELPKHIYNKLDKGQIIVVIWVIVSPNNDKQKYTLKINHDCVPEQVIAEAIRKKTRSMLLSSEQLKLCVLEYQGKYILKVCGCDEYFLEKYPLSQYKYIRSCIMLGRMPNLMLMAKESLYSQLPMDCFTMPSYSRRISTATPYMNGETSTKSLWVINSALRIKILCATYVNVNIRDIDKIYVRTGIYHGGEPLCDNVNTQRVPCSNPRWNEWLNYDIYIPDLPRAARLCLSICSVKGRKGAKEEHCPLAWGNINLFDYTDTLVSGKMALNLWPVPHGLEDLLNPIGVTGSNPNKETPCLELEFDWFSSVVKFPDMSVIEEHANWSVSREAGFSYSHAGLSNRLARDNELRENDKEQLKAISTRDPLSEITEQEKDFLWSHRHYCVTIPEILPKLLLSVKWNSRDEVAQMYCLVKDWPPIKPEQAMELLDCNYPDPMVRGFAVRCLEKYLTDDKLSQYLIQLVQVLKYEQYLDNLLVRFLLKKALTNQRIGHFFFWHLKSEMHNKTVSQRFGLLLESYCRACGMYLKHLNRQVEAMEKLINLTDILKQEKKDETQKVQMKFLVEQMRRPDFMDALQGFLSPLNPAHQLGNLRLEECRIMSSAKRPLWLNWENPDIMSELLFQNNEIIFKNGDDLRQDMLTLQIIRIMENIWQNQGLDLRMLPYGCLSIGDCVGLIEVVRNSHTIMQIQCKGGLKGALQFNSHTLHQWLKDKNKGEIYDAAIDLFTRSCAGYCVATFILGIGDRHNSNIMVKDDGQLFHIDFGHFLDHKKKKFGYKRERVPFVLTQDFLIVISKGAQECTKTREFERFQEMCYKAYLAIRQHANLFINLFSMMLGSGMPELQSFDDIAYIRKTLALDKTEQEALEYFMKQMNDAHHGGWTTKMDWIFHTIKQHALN

IC50 [1] | IC50 [2] | IC50 [3] | IC50 [4] | IC50 [5] | IC50 [6] | Structure (SMILES) | further results
– | – | 200 nM | 400 nM | 300 nM | 520 nM | Cn1c(=O)n(-c2ccc(C(C)(C)C#N)cc2)c2c3cc(-c4cnc5ccccc5c4)ccc3ncc21 [DACTOLISIB] | –
6.8 nM | 230 nM | – | – | – | – | CCOC(=O)CN1CCC[C@H](Nc2ncnc3ccc(-c4cnc(OC)c(C(F)(F)F)c4)cc23)C1 | –
3.2 nM | 500 nM | – | – | – | – | CCOC(=O)CN1CCC[C@H](Nc2ncnc3ccc(-c4cnc(OC)c(C#N)c4)cc23)C1 | –
1.3 nM | 160 nM | > 10000 nM | > 10000 nM | > 10000 nM | > 10000 nM | COc1ncc(-c2ccc3ncnc(N[C@H]4CCCN(C(=O)CN(C)C)C4)c3c2)cc1C#N | IC50 [8]: 150 nM; IC50 [9]: 250 nM; IC50 [10]: 21.8 nM
14.3 nM | 15 nM | – | – | – | – | COc1ncc(-c2ccc3ncnc(N[C@H]4CCCN(C(=O)CCBr)C4)c3c2)cc1C#N | –

More lines, now with the values behind:

Structure (SMILES) | IC50 [1] | IC50 [2] | IC50 [3] | IC50 [4] | IC50 [5] | IC50 [6] | further results
COc1ncc(-c2ccc3ncnc(N[C@H]4CCCN(C(=O)C(F)(F)F)C4)c3c2)cc1C#N | 3.2 nM | 210 nM | – | – | – | – | –
COc1ncc(-c2ccc3ncnc(N[C@H]4CCCN(C(=O)C5CCN(C)CC5)C4)c3c2)cc1C#N | 9.4 nM | 420 nM | – | – | – | – | –
COc1ncc(-c2ccc3ncnc(N[C@H]4CCCN(CCO)C4)c3c2)cc1C#N | 4.7 nM | 2050 nM | – | – | – | – | –
CC[C@H](Nc1ncnc2[nH]cnc12)c1nc2cccc(F)c2c(=O)n1-c1ccccc1 [IDELALISIB] | – | 33 nM | > 10000 nM | > 10000 nM | > 10000 nM | > 10000 nM | –
COc1ncc(-c2ccc3ncnc(N[C@H]4CCCN(C(=O)CCl)C4)c3c2)cc1C#N | 8.9 nM | 380 nM | – | – | – | – | –
COc1ncc(-c2ccc3ncnc(N[C@H]4CCCN(C(=O)C5CCNCC5)C4)c3c2)cc1C#N | 2.5 nM | 2440 nM | – | – | – | – | –
COc1ncc(-c2ccc3ncnc(O[C@H]4CCN(C(=O)C5CCOCC5)C4)c3c2)cc1C#N | – | – | – | – | – | – | IC50 [7]: 4.9 nM
COc1ncc(-c2ccc3ncnc(N[C@H]4CCCN(C(=O)c5cccnc5)C4)c3c2)cc1C#N | 0.7 nM | 120 nM | > 10000 nM | > 10000 nM | > 10000 nM | > 10000 nM | IC50 [8]: 9.1 nM; IC50 [9]: 2 nM; IC50 [10]: 120 nM; inhibition [11]: Dose-dependent effect
COc1ncc(-c2ccc3ncnc(N[C@H]4CCCN(C(=O)C(F)(F)F)C4)c3c2)cc1[N+](=O)[O-] | 27 nM | 127000 nM | – | – | – | – | –
COc1ncc(-c2ccc3ncnc(N[C@H]4CCCN(C(=O)C5CCOCC5)C4)c3c2)cc1C#N | 7.7 nM | 150 nM | – | – | – | – | –
COc1ncc(-c2ccc3ncnc(N[C@H]4CCCN(C(=O)[C@H](C)N)C4)c3c2)cc1C#N | 3.7 nM | 440 nM | > 10000 nM | > 10000 nM | > 10000 nM | > 10000 nM | IC50 [8]: 147 nM; IC50 [9]: 211 nM; IC50 [10]: 18.2 nM
